# Measured values as given in patent US10370364B1, “Substituted chromenes for treatment of fibrosis or non-alcoholic steatohepatitis” (OSTEONEUROGEN INC., priority 2018, dated 2019).
# Read-outs that look alike come from different tables or passages of the source.
# Assays:
# [1] = test system: α-SMA (alpha-smooth muscle actin); assay: α-SMA expression in ONGHEPA1 cells by immunofluorescent staining; assay type: cell-based, rat; details: TGF-β plus compound 50 μM
# Text: In addition, in order to examine whether the above-described effect would be attributable to the effect against epithelial-mesenchymal transition (EMT) (hereinafter referred to as “EMT”), the expression of α-SMA (alpha-smooth muscle actin), which is a representative marker of EMT, in the cells of each test group, was examined by immunofluorescent staining and nuclear staining (DAPI staining).
# [2] = physchem
# Experimental: The compound of the present invention was added to phosphate buffer (pH 7.4) at a concentration of 1 mg/ml and stirred. After 16 hours, the sample was filtered through a filter, and the supernatant was analyzed by HPLC-UV, thereby determining the content of compound dissolved.
# [3] = test system: Diseased human lung fibroblasts (DHLF); assay: TGF-β-induced fibrosis of diseased human lung fibroblasts (DHLF); assay type: cell-based; details: TGF-β 5 ng/ml, compound 50 μM, 24, 48 or 72 hours
# Experimental: Diseased human lung fibroblasts (DHLF) (Lonza, Swiss) isolated from lung fibrosis patients were seeded into medium, cultured for 24 hours, and then treated with TGF-β (5 ng/ml) to induce fibrosis. Alternatively, the fibroblasts were co-treated with TGF-β and the compound of the present invention (50 μM in DMSO) and cultured for 24, 48 or 72 hours. Next, the degree of differentiation into myofibroblasts was examined with a phase contrast microscope (200×).
# [4] = test system: Snail; assay: Snail expression in A549 cells by real-time PCR; assay type: cell-based, human; details: A549, TGF-β plus compound
# Experimental: In addition, in order to examine whether the effect as described above would be attributable to the effect against EMT, the expression patterns of Snail and Vimentin, which are representative markers of EMT, in the cells of each test group, were analyzed by real-time PCR.
# [5] = Pharmacokinetics in male SD rats (oral and i.v., various formulations); assay type: in vivo, rat
# Experimental: To examine the pharmacokinetics of the compound after oral administration, rat models were used.
# Male SD rats (weighed 250 to 300 g) were divided into several groups, each consisting of 3 rats, […], after which the amount of the compound present in the plasma was measured with the passage of time. […]
# For effective formulation of the compound of the present invention, the pharmacokinetics of various formulations after oral administration were examined according to the same method as described in Experimental Example 2-4 above.
# [6] = target: T1, CYP3A4 (Homo sapiens, UniProt P08684); assay: CYP450 inhibition, CYP3A4
# T1 sequence (P08684 whole entry): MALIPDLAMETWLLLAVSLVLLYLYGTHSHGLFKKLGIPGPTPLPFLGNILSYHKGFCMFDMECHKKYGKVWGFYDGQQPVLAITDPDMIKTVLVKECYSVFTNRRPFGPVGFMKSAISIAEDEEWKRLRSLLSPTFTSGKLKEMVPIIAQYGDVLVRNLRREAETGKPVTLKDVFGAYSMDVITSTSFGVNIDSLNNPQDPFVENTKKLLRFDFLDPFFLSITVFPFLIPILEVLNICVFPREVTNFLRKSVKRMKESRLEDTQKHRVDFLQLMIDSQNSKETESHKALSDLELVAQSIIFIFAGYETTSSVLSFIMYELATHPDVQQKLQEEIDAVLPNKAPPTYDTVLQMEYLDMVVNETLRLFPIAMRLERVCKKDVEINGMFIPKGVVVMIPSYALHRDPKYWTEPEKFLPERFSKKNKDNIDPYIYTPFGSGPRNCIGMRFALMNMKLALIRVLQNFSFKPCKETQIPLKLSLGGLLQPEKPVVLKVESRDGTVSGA
# [7] = test system: A549 cell line; assay: TGF-β-induced myofibroblast differentiation of A549 cell line; assay type: cell-based, human; details: A549, TGF-β 5 ng/ml, compound 25 or 50 μM, 24 or 48 hours
# Experimental: The A549 cell line, which is a lung adenocarcinoma cell line used as a lung EMT-related study model, was seeded into medium, cultured for 24 hours, and then treated with TGF-β (5 ng/ml). Alternatively, the A549 cell line was co-treated with TGF-β and the compound of the present invention (25 or 50 μM in DMSO) and cultured for 24 or 48 hours. Next, the cells were examined with a phase contrast microscope (200×).
# [8] = test system: STAM mice; assay: Non-alcoholic steatohepatitis animal model (STAM mice), NAFLD activity score; assay type: in vivo; details: 50 mpk oral, Formulation Example 2, once a day five times a week
# Experimental: STAM mice (SMC Laboratories, Inc., Japan), which are non-alcoholic steatohepatitis animal models, were used as experimental animals. These animal models were administered with streptozotocin immediately after birth, and fed with high-fat-diet after 3 weeks. Then, in the mouse model, non-alcoholic steatohepatitis occurred at 6 to 9 weeks, and liver fibrosis, cirrhosis and liver cancer occurred within 9 to 12 weeks.
# Over 6 to 9 weeks after administration of streptozotocin, the compound of the present invention, dissolved in a mixture solution of Tween80 and 0.5% CMC aqueous solution (1:99 (v/v)) (Formulation Example 2), was orally administered to the animal models once a day (five times a week). As controls, telmisartan and OCA (obeticholic acid) were administered in the same manner.
# At […] after administration of streptozotocin (a time point after 3-week administration of the compound), the mice were sacrificed, the liver of each mouse was dissected, the invasion of inflammatory cells was observed by […] of the liver tissue, and fibrosis of the liver tissue was observed by Sirius Red staining (see FIG. 42). In addition, the degrees of inflammation, fibrosis, liver cell ballooning and adipose accumulation observed were measured, data integration was performed, and the NAFLD (nonalcoholic fatty liver disease) activity score was statistically processed by t-test.
# [9] = target: T2, CYP2D6 (Homo sapiens, UniProt P10635); assay: CYP450 inhibition, CYP2D6
# T2 sequence (P10635 whole entry): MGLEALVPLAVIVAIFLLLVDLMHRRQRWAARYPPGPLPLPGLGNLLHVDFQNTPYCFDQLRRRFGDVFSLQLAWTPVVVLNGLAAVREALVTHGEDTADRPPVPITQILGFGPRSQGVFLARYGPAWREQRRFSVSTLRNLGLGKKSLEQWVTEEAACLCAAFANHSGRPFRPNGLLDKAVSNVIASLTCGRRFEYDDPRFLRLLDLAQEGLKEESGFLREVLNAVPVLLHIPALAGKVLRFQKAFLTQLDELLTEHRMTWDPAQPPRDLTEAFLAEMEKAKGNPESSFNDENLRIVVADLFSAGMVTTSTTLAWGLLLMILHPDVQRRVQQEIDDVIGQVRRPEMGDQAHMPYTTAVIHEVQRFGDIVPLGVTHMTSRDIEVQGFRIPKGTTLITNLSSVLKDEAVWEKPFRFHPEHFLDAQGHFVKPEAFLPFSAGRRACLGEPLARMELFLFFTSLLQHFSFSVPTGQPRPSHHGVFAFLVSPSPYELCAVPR
# [10] = target: T1, CYP3A4
# [11] = target: T2, CYP2D6
# [12] = male, SD, plasma, iv, 1 mg/kg, rat, 1 mpk i.v, Formulation Example 1
# [13] = male, SD, rat, plasma, po, 10 mg/kg, 10 mpk po, Formulation Example 3, NMP/PEG400/Solutol HS/water vehicle
# [14] = male, SD, rat, plasma, po, 10 mg/kg, 10 mpk po, Formulation Example 4, NMP/ethanol/PEG200/saline vehicle
# [15] = male, SD, rat, plasma, po, 10 mg/kg, 10 mpk po, Formulation Example 5, in 30% HPCD aqueous solution
# [16] = male, SD, rat, plasma, po, 200 mg/kg, 200 mpk po, Formulation Example 2
smiles,measurement,setting,value
"COc1ccc(-c2cc(=O)c3c(O)c(OC)c(OCCN4CCNC(=O)C4)cc3o2)cc1OC [Compound 1, 4-(2-((2-(3,4-dimethoxyphenyl)-5-hydroxy-6-methoxy-4-oxo-4H-chromen-7-yl)oxy)ethyl)piperazin-2-one]",expression of α-SMA,[1],inhibited
same,solubility in the buffer (in words),[2]; pH 7.4,"lower than that of caffeine, but higher than that of diethyl stilbesterol"
same,solubility at 16 h,"[2]; pH 7.4, aqueous buffer, thermodynamic from solid",9.59 µg/mL
same,degree of differentiation into myofibroblasts (fibrosis symptom),[3],showed little or no fibrosis symptom
same,growth of the cells,[3],inhibited
same,expression of Snail,[4],significantly inhibited
same,plasma profile after oral administration (in words),"[5]; Formulation Example 2 compared to Formulation Example 3, FIG. 25",absorbed rapidly in vivo after oral administration and was maintained in the plasma for a long period of time
same,MRT inf,"[5]; male, SD, plasma, 10 mg/kg, rat, 10 mpk po, Formulation Example 5",3.2 ± 0.7 h
same,half-life,"[5]; male, SD, plasma, 10 mg/kg, rat, 10 mpk po, Formulation Example 5, read-out: t1/2 (converted)",1.9 ± 0.6 h
same,MRT inf,"[5]; male, SD, plasma, 200 mg/kg, rat, 200 mpk po, Formulation Example 2",1.7 ± 0.2 h
same,half-life,"[5]; male, SD, plasma, 200 mg/kg, rat, 200 mpk po, Formulation Example 2, read-out: t½ (converted)",1.5 ± 0.4 h
same,MRT inf,[5]; [12],0.4 h
same,Vd,[5]; [12],3.6 ± 0.25 L/kg
same,C0,"[5]; male, SD, plasma, iv, 1 mg/kg, rat, 1 mpk i.v, Formulation Example 1 (100% DMSO)",506 ± 130 ng/mL
same,clearance,"[5]; male, SD, plasma, iv, 1 mg/kg, rat, 1 mpk i.v, Formulation Example 1, read-out: CLP (converted)",112 mL/min/kg
same,half-life,"[5]; male, SD, plasma, iv, 1 mg/kg, rat, 1 mpk i.v, Formulation Example 1, read-out: t1/2 (converted)",0.38 ± 0.03 h
same,AUC(0-inf),"[5]; male, SD, rat, plasma, iv, 1 mg/kg, 1 mpk i.v, Formulation Example 1",149 ± 3 ng·h/mL
same,AUC(0-t),"[5]; male, SD, rat, plasma, iv, 1 mg/kg, rat, 1 mpk i.v, Formulation Example 1, read-out: AUC(0-t)",147 ± 2.2 ng·h/mL
same,bioavailability,"[5]; male, SD, rat, plasma, po, 10 mg/kg, 10 mpk po, Formulation Example 2",1.4%
same,bioavailability,"[5]; male, SD, rat, plasma, po, 10 mg/kg, 10 mpk po, Formulation Example 3",~9%
same,AUC(0-inf),[5]; [13],155 ± 7.5 ng·h/mL
same,Tmax,[5]; [13],0.25 ± 0.1 h
same,bioavailability,"[5]; male, SD, rat, plasma, po, 10 mg/kg, 10 mpk po, Formulation Example 4",~3%
same,AUC(0-inf),[5]; [14],46.4 ± 14.1 ng·h/mL
same,Tmax,[5]; [14],0.25 h
same,bioavailability,"[5]; male, SD, rat, plasma, po, 10 mg/kg, 10 mpk po, Formulation Example 5",~7%
same,Cmax,"[5]; male, SD, rat, plasma, po, 10 mg/kg, 10 mpk po, Formulation Example 5 (30% (w/v) HPCD aqueous solution)",393 ± 299 ng/mL
same,AUC(0-inf),[5]; [15],1080 ± 327 ng·h/mL
same,Tmax,[5]; [15],1.3 ± 0.6 h
same,Cmax,"[5]; male, SD, rat, plasma, po, 10 mg/kg, rat, 10 mpk po, Formulation Example 2 (Tween80: 0.5% CMC 1:99)",22.3 ± 8.9 ng/mL
same,Tmax,"[5]; male, SD, rat, plasma, po, 10 mg/kg, rat, 10 mpk po, Formulation Example 2, in Tween80:0.5% CMC aqueous vehicle",0.4 ± 0.1 h
same,AUC(0-t),"[5]; male, SD, rat, plasma, po, 10 mg/kg, rat, 10 mpk po, Formulation Example 2, in Tween80:0.5% CMC aqueous vehicle, read-out: AUC(0-t)",20.4 ± 6.2 ng·h/mL
same,Cmax,"[5]; male, SD, rat, plasma, po, 10 mg/kg, rat, 10 mpk po, Formulation Example 3 (NMP: PEG400: SOLUTOL HS: water 10:20:20:50)",62.2 ± 37.5 ng/mL
same,AUC(0-t),"[5]; male, SD, rat, plasma, po, 10 mg/kg, rat, 10 mpk po, Formulation Example 3, NMP/PEG400/Solutol HS/water vehicle, read-out: AUC(0-t)",126 ± 19.1 ng·h/mL
same,Cmax,"[5]; male, SD, rat, plasma, po, 10 mg/kg, rat, 10 mpk po, Formulation Example 4 (NMP: ethanol: PEG200: normal saline 5:10:30:55)",46.7 ± 8.8 ng/mL
same,AUC(0-t),"[5]; male, SD, rat, plasma, po, 10 mg/kg, rat, 10 mpk po, Formulation Example 4, NMP/ethanol/PEG200/saline vehicle, read-out: AUC(0-t)",42.5 ± 16 ng·h/mL
same,AUC(0-t),"[5]; male, SD, rat, plasma, po, 10 mg/kg, rat, 10 mpk po, Formulation Example 5, in 30% HPCD aqueous solution, read-out: AUC(0-t)",1000 ± 314 ng·h/mL
same,AUC(0-inf),[5]; [16],426 ± 67.7 ng·h/mL
same,Tmax,[5]; [16],1 h
same,bioavailability,[5]; [16],1.4%
same,Cmax,"[5]; male, SD, rat, plasma, po, 200 mg/kg, rat, 200 mpk po, Formulation Example 2 (Tween80: 0.5% CMC 1:99)",261 ± 41.4 ng/mL
same,AUC(0-t),"[5]; male, SD, rat, plasma, po, 200 mg/kg, rat, 200 mpk po, Formulation Example 2, read-out: AUC (0-24)",420 ± 69.3 ng·h/mL
same,AUC(0-t),"[5]; male, SD, rat, plasma, po, 200 mg/kg, rat, 200 mpk po, Formulation Example 2, read-out: AUC(0-t)",420 ± 69.3 ng·h/mL
same,bioavailability,"[5]; male, SD, rat, plasma, po, Formulation Example 2, dose not given",1.4%
same,AUC_% Extrap (obs),"[5]; rat, 1 mpk i.v, Formulation Example 1",1.8 ± 0.5%
same,AUC_% Extrap (obs),"[5]; rat, 10 mpk po, Formulation Example 5",7.0 ± 5.2%
same,absorption after oral administration (in words),"[5]; rat, 200 mpk po, 0.5% CMC and about 1% Tween-80",absorbed rapidly in vivo after oral administration
same,AUC_% Extrap (obs),"[5]; rat, 200 mpk po, Formulation Example 2",1.6 ± 0.7%
same,IC50,"[6]; 3A4-midazolam IC50, substrate midazolam",> 50 µM
same,IC50,"[6]; 3A4-testosterone IC50, substrate testosterone",49.7 µM
same,myofibroblast differentiation,[7],inhibited
same,NAFLD activity score (t-test),[8],statistically significant anti-NASH effects
same,IC50,[9],> 50 µM
same,inhibitory activity against CYP3A4 (in words),[10],little or very low inhibitory activity
same,inhibitory activity against CYP2D6 (in words),[11],little or very low inhibitory activity
